From US20250002487A1, “HETEROCYCLIC COMPOUNDS AND USES THEREOF” (Ventus Therapeutics U.S., Inc., priority 2021, published 2025)

Molecular target: human-cGAS (h-cGAS) (Homo sapiens, UniProt Q8N884)
Test: hcGAS Kinase-Glo Assay
Assay type: biochemical
Settings: 40 nM h-cGAS, 100 μM ATP, 100 μM GTP, 25 nM dsDNA, 3 h incubation, read-out: hcGAS potency IC50
Procedure: In some embodiments, the compounds of the instant disclosure may be tested for their human-cGAS (h-cGAS) inhibition activity using the methodology reported in Lama et al., “Development of human cGAS-specific small molecule inhibitors for repression of double stranded DNA (dsDNA)-triggered interferon expression”, Nature Communications 10, Article number: 2261 (2019), incorporated herein by reference. hcGAS Kinase-Glo Assay Compounds were tested for their human-cGAS (h-cGAS) inhibition activity using the methodology reported in Lama et al., “Development of human cGAS-specific small molecule inhibitors for repression of double stranded DNA (dsDNA)-triggered interferon expression”, Nature Communications 10. Article number: 2261 (2019), which is herein incorporated by reference in its entirety, with slight changes to some conditions as shown in Table B. The results of the assays, expressed in IC50 ranges are reported in Table C with the following designations: A represents an IC50 value <0.1 μM; B represents an IC50 value ≥0.1 μM and <0.5 μM; C represents an IC50 value ≥0.5 μM and <1.0 μM; D represents an IC50 value ≥1.0 μM. [table]

human-cGAS (h-cGAS), sequence (Q8N884 whole entry): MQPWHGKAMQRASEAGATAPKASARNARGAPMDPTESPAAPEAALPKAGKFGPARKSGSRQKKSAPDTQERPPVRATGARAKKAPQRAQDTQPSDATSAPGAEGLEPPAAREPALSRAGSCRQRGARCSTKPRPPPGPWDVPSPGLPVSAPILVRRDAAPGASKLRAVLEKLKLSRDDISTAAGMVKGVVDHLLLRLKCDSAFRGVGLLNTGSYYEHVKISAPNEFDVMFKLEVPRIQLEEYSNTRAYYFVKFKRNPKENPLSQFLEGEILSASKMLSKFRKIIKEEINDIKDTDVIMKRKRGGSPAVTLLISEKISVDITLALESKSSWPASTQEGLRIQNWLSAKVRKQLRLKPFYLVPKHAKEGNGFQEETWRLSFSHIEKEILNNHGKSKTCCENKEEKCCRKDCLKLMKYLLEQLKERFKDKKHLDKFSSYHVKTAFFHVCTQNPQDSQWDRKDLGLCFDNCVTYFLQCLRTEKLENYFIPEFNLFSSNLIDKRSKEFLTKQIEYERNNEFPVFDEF

| Structure (SMILES) | IC50 |
| --- | --- |
| CSc1nnc(NC(=O)c2cc(C(C)C)no2)s1 [Compound 82, 3-isopropyl-N-(5-(methylthio)-1,3,4-thiadiazol-2-yl)isoxazole-5-carboxamide] | 0.5 to 1 µM |
| CSc1nnc(NC(=O)c2nnc(-c3c(F)cccc3F)o2)s1 [Compound 45, 5-(2,6-difluorophenyl)-N-(5-(methylthio)-1,3,4-thiadiazol-2-yl)-1,3,4-oxadiazole-2-carboxamide] | 0.5 to 1 µM |
| CSc1nnc(NC(=O)c2cc(=O)c3cccc(O)c3[nH]2)s1 [Compound 199, 8-hydroxy-N-(5-(methylthio)-1,3,4-thiadiazol-2-yl)-4-oxo-1,4-dihydroquinoline-2-carboxamide] | ≥ 1 µM |
| CSc1nnc(NC(=O)c2onc3ccc(CN4CC[C@@H](O)[C@H](O)C4)cc23)s1 (racemic) [rac-183, 5-((3,4-rac-trans-dihydroxypiperidin-1-yl)methyl)-N-(5-(methylthio)-1,3,4-thiadiazol-2-yl)benzo[c]isoxazole-3-carboxamide] | ≥ 1 µM |
| CSc1nnc(NC(=O)c2nnn(-c3ccccn3)n2)s1 [Compound 136, N-(5-(methylthio)-1,3,4-thiadiazol-2-yl)-2-(pyridin-2-yl)-2H-tetrazole-5-carboxamide] | 0.5 to 1 µM |
| CSc1nnc(NC(=O)c2nnc(N3CCCC(O)C3)o2)s1 (centres unmarked) [Compound 109, 5-(3-hydroxypiperidin-1-yl)-N-(5-(methylthio)-1,3,4-thiadiazol-2-yl)-1,3,4-oxadiazole-2-carboxamide] | ≥ 1 µM |
| CSc1nnc(NC(=O)c2cc(-c3cccc(C)c3)no2)s1 [Compound 219, 3-(3-methylphenyl)-N-[5-(methylsulfanyl)-1,3,4-thiadiazol-2-yl]-1,2-oxazole-5-carboxamide] | 0.5 to 1 µM |
| CNc1nnc(NC(=O)c2onc3c2ccc2cccnc23)s1 [Compound 280, N-(5-(methylamino)-1,3,4-thiadiazol-2-yl)isoxazolo[4,3-h]quinoline-3-carboxamide] | ≥ 1 µM |
| CSc1nnc(NC(=O)c2cc(-c3ccsc3)no2)s1 [Compound 139, N-[5-(methylsulfanyl)-1,3,4-thiadiazol-2-yl]-3-(thiophen-3-yl)-1,2-oxazole-5-carboxamide] | 0.5 to 1 µM |
| CSc1nnc(NC(=O)c2cc(-c3cnc4ccccc4c3)cc(=O)o2)s1 [Compound 255, N-(5-methylsulfanyl-1,3,4-thiadiazol-2-yl)-6-oxo-4-(3-quinolyl)pyran-2-carboxamide] | 0.5 to 1 µM |
| COc1cccc(-c2cc(C(=O)Nc3nnc(SC)s3)on2)c1 [Compound 212, 3-(3-methoxyphenyl)-N-[5-(methylsulfanyl)-1,3,4-thiadiazol-2-yl]-1,2-oxazole-5-carboxamide] | ≥ 1 µM |
| CSc1nnc(NC(=O)c2cc(-c3ccns3)no2)s1 [Compound 140, N-[5-(methylsulfanyl)-1,3,4-thiadiazol-2-yl]-3-(1,2-thiazol-5-yl)-1,2-oxazole-5-carboxamide] | ≥ 1 µM |

More lines, now with the values ahead:

| IC50 | Structure (SMILES) |
| --- | --- |
| ≥ 1 µM | CSc1nnc(NC(=O)c2cc3ccccc3c(=O)o2)s1 [Compound 207, N-(5-(methylthio)-1,3,4-thiadiazol-2-yl)-1-oxo-1H-isochromene-3-carboxamide] |
| 0.5 to 1 µM | CSc1nnc(NC(=O)c2cc(C3CC3)no2)s1 [Compound 17, 3-cyclopropyl-N-(5-(methylthio)-1,3,4-thiadiazol-2-yl)isoxazole-5-carboxamide] |
| 0.5 to 1 µM | CSc1nnc(NC(=O)c2nnc(N3CCCCC3c3ccccc3)o2)s1 (centres unmarked) [Compound 149, N-(5-(methylthio)-1,3,4-thiadiazol-2-yl)-5-(2-phenylpiperidin-1-yl)-1,3,4-oxadiazole-2-carboxamide] |
| 0.1 to 0.5 µM | CSc1nnc(NC(=O)c2nnc(N3CCCC[C@H]3c3ccccc3)o2)s1 (single isomer, unassigned) [Compound 122*] |
| 0.5 to 1 µM | CSc1nnc(NC(=O)c2nnc(-c3cccnc3)o2)s1 [Compound 107, N-[5-(methylsulfanyl)-1,3,4-thiadiazol-2-yl]-5-(pyridin-3-yl)-1,3,4-oxadiazole-2-carboxamide] |
